# Experimental data taken from patent US6906078B2, “Method of using (H+/K+) ATPase inhibitors as antiviral agents” (Pharmacia Corporation, priority 1994, dated 2005).
# Tests used:
# (H+/K+)-ATPase = biological target: T1, (H+/K+)-ATPase (Canis lupus familiaris, UniProt P50996); test: Inhibition of (H+/K+)-ATPase from canine gastric mucosa (inorganic phosphate release); format: biochemical; conditions: canine gastric mucosa microsomes, pH 6.0, 30 min preincubation at 37° C.; read-out: (H+/K+)-ATPase IC50
# T1 construct: The microsomes retained at the 15%-30% sucrose interface, after centrifugation at 250,000×g for sixty minutes, were used as the source of (H^+/K^+)-ATPase; from tissue; host or cells: gastric glandular mucosa of mongrel dogs (microsomal fraction, lyophilized)
# Procedure, shortened: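 Lyophilised gastric microsomes (sucrose-gradient 15%/30% interface fraction from dog mucosa, ~25 mcg protein) preincubated with compound 30 min at 37° C in 20 mM MES-Tris pH 6.0, 5 mM MgCl2, 25 mM sucrose, then 30 min more after 4 mM Tris-ATP. Released phosphate read by molybdate/ascorbate at 870 nm; activity = K+-stimulated (20 mM KCl) minus basal.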
# [1] = biological target: HCMV protease (assemblin) (Human cytomegalovirus, UniProt P16753); test: Enzymatic assay for HCMV protease (assemblin) inhibitors, fluorogenic substrate DE2; format: biochemical; conditions: at 100 μm; 30 min preincubation at 22° C.; read-out: Assemblin Inhibition % Inhibition at 100 μm
# Method: The enzymatic assay for assemblin inhibitors compared the rate of product appearance between a control reaction containing no inhibitor and one that contained a known concentration of a potential inhibitor. There were two phases to the enzyme reaction. The first was a period of incubation of enzyme in the presence of inhibitor, but in the absence of the substrate. This incubation allowed for the inhibitor to bind and potentially block the enzyme from hydrolyzing the substrate. The second phase was started by adding the substrate and measuring the rate of product production.
# The construction also encoded six additional histidine residues at the amino terminus of the protease. These additional histidine residues provided an affinity ligand by which it was purified using nickel-nitriloacetic acid-agarose (Qiagen).
# The purified protease was stored as a 1-3 mg/ml stock solution in 50 mM sodium phosphate buffer, pH 7.4; 300 mM sodium chloride; 100 mM imidazole; 50% (v/v) glycerol. This stock was diluted with assay buffer to 4.8 μg/ml. A 100 μL aliquot of this solution was used in the enzyme reaction.
# A specific substrate was synthesized based on the cleavage specificity of HCMV protease at the “maturation site” of the assembly protein (F. Liu and B. Roizman, J. Viral. 65, 5149 (1991), and A. R. Welch, et al, J. Viral., 65 4091 (1991)). The assembly protein maturation site has the sequence . . . AGVVNA*SCRLATA . . . (SEQ ID NO. 1); the substrate used was dabcycl-Abu-[…]-edans (SEQ ID NO. 2) (DE2). […] However, when the two chromophores are separated because of hydrolysis of the peptide moiety by HCMV protease the edans fluorescence was no longer quenched and an increase in fluorescence was realized. DE2 was stored as a stock solution at 160 μg/ml in dimethyl sulfoxide. This was diluted 10-fold with assay buffer to give a concentration of 16 μg/ml just before use. An aliquot of 50 μL was used in the reaction.
# An assay Buffer (10 mM sodium phosphate buffer, pH 7.4; 150 mM sodium acetate; 0.1% CHAPS; and 20% (v/v) glycerol) was used to dilute stock solutions of enzyme and substrate.
# Inhibitors were dissolved in dimethyl sulfoxide at 16-times the final assay concentration. A 10 μL aliquot of this inhibitor solution was used in the reaction.
# A 100 μL aliquot of enzyme solution (4.8 μg/ml) was mixed with 10 μL of inhibitor solution in a 96-well plate cell and incubated at 22° C. for 30 minutes. Control reactions contained 10 μL of dimethylsulfoxide instead of inhibitor solution. After the preincubation was completed, 50 μL of substrate solution was added and the fluorescence recorded every 5 minutes for a period of 30 minutes. All reactions were run in triplicate with the exception of the uninhibited control reaction which was replicated 6-fold. The change in fluorescence was recorded over time and an average rate for each set of 3 reactions was calculated. Fluorescence assays were subject to spurious various due to factors such as dust in the 96-well plate; such results were omitted from the calculation of relative rates.
# Chain of HCMV protease (assemblin) (P16753 1-256): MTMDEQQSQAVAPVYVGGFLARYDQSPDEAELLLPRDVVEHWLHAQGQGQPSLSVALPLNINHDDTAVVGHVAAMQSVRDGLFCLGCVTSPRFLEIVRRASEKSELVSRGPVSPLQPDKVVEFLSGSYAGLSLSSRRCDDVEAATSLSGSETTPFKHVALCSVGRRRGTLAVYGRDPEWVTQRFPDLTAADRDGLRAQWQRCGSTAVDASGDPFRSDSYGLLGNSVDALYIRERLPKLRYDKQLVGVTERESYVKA
# T1 sequence (P50996 whole entry): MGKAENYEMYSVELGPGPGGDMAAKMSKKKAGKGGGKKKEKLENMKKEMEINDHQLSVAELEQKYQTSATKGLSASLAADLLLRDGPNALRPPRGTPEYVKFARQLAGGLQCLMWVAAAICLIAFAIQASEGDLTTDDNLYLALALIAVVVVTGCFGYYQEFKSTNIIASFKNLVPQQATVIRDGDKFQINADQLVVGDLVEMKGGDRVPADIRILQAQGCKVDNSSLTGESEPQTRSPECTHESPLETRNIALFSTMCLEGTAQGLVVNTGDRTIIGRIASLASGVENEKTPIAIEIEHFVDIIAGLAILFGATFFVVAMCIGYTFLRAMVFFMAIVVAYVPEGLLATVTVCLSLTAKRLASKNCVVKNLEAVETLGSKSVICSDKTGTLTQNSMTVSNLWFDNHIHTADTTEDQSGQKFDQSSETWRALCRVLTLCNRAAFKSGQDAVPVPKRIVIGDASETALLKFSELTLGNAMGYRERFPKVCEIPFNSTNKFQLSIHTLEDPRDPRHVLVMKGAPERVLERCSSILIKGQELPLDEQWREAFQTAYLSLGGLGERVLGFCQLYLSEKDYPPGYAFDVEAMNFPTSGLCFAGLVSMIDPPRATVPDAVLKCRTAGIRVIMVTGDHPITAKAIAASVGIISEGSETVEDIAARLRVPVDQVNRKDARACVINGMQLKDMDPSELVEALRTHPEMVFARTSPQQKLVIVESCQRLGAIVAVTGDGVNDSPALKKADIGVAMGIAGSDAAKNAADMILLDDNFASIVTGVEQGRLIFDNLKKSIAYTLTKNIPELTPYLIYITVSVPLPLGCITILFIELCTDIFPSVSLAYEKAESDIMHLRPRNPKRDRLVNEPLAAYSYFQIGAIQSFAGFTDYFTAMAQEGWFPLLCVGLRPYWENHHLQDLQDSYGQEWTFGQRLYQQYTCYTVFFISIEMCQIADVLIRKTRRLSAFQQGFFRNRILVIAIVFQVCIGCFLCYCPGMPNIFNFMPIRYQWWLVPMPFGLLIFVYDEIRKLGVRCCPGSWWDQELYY
# T1 sequence (P33704 whole entry partner): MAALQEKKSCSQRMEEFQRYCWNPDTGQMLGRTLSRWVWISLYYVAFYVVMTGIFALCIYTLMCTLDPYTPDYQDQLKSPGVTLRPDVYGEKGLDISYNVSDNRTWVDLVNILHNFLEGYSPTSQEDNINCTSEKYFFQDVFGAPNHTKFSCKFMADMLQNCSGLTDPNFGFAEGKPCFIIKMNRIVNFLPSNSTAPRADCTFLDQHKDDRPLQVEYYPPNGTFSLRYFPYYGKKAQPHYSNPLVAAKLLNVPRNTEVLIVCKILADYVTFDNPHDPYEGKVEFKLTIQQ
Structure (SMILES),IC50 ((H+/K+)-ATPase),inhibition at 100 µM [1]
"Nc1ccccc1C[S+]([O-])c1nc2cc(Cl)ccc2[nH]1 (stereo not drawn) [Example 43, 2-[[(5-Chloro-1H-benzimidazol-2-yl)sulfinyl]-methyl]benzenamine]",12000 nM,74%
"COc1ccc2[nH]c([S+]([O-])Cc3ncc(C)c(OC)c3C)nc2c1 (stereo not drawn) [omeprazole, reference compound]",1900 nM,0%
"COc1ccc(N)c(C[S+]([O-])c2nc3ccccc3[nH]2)c1 (stereo not drawn) [Example 20, 2-[(1H-Benzimidazol-2-ylsulfinyl)methyl]-4-methoxybenzenamine]",1600 nM,60%
"Cc1ccc2[nH]c([S+]([O-])Cc3ccccc3N)nc2c1 (stereo not drawn) [Example 41, 2-[[(5-Methyl-1H-benzimidazol-2-yl)sulfinyl]-methyl]benzenamine]",7900 nM,67%
"Cc1ccc(C[S+]([O-])c2nc3ccccc3[nH]2)c(N)c1C (stereo not drawn) [Example 53, 2-[(1H-Benzimidazol-2-ylsulfinyl)methyl]-5,6-dimethylbenzenamine ¼ hydrate]",600 nM,85%
"COc1ccc2[nH]c([S+]([O-])Cc3c(N)cc(C)c(OC)c3C)nc2c1 (stereo not drawn) [Example 78, 2-[[(5-Methoxy-1H-benzimidazol-2-yl)sulfinyl]methyl]-4-methoxy-3,5-dimethylbenzenamine]",2100 nM,82%
